In patent US20090270350A1, “Pyridinone Pyrazole Urea and Pyrimidinone Pyrazole Urea Derivatives” (PFIZER INC., priority 2006, published 2009):

Target: p38α (Homo sapiens, UniProt Q16539)
Assay: p38α/MK2 cascade assay
Format: biochemical
Conditions: Table 2; same p38α/MK2 cascade assay; 40 minutes preincubation; read-out: p38a/MK2 Cascade 40 min Pre-Incuabtion (% Inhibition): IC50
Outline: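 In a cascade format, p38α was preincubated 40 min with inhibitor (1000–0.05 nM) before adding 1 nM nonactive MK2 (54-400), 5 μM MgATP and 0.5 μM FITC-Hsp27 peptide. Reaction ran 60 min in HEPES pH 7.5 with MgCl2, DTT, 2% DMSO, then EDTA-quenched. Peptide phosphorylation was measured by Caliper mobility shift to give IC50.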

p38α, sequence (Q16539 whole entry): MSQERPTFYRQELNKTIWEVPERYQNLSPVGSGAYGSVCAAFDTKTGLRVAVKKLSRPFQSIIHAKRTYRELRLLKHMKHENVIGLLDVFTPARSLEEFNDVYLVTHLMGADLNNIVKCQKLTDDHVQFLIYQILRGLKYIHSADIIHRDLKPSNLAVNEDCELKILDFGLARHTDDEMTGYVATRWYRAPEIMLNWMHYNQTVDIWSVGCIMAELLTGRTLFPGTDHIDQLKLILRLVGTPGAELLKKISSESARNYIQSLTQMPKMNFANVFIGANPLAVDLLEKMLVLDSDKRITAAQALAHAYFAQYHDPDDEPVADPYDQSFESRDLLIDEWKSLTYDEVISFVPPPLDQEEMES

Structure (SMILES) | IC50
COc1ccc(Cn2c(C)cc(OCc3ccccc3CNC(=O)Nc3cc(C(C)(C)C)nn3-c3ccccc3)c(C)c2=O)cc1 [Example 237, 1-(3-tert-butyl-1-phenyl-1H-pyrazol-5-yl)-3-[2-({[1-(4-methoxybenzyl)-3,6-dimethyl-2-oxo-1,2-dihydropyridin-4-yl]oxy}methyl)benzyl]urea] | 11.2 nM
CSc1ccccc1Cn1c(C)cc(OCc2ccccc2CNC(=O)Nc2cc(C(C)(C)C)nn2-c2ccc(O)cc2)c(C)c1=O [Example 241, 1-[3-tert-butyl-1-(4-hydroxyphenyl)-1H-pyrazol-5-yl]-3-{2-[({3,6-dimethyl-1-[2-(methylthio)benzyl]-2-oxo-1,2-dihydro-pyridin-4-yl}oxy)methyl]benzyl}urea] | 13.6 nM
COc1ccc(Cn2c(C)cc(OCc3ccccc3CNC(=O)Nc3cc(C(C)(C)C)nn3-c3cccc(Cl)c3)c(Br)c2=O)c(OC)c1 [Example 242, 1-[2-({[3-bromo-1-(2,4-dimethoxybenzyl)-6-methyl-2-oxo-1,2-dihydropyridin-4-yl]oxy}methyl)benzyl]-3-[3-tert-butyl-1-(3-chlorophenyl)-1H-pyrazol-5-yl]urea] | 10.8 nM
COc1ccc(Cn2c(C)cc(OCc3ccccc3CNC(=O)Nc3cc(C(C)(C)C)nn3-c3ccccc3)c(C)c2=O)c(OC)c1 [Example 243, 1-(3-tert-butyl-1-phenyl-1H-pyrazol-5-yl)-3-[2-({[1-(2,4-dimethoxybenzyl)-3,6-dimethyl-2-oxo-1,2-dihydropyridin-4-yl]oxy}methyl)benzyl]urea] | 9.54 nM
COc1ccc(Cn2c(C)cc(OCc3ccccc3CNC(=O)Nc3cc(C(C)(C)C)nn3-c3ccc(F)cc3F)c(C)c2=O)c(OC)c1 [Example 244, 1-[3-tert-butyl-1-(2,4-difluorophenyl)-1H-pyrazol-5-yl]-3-[2-({[1-(2,4-dimethoxybenzyl)-3,6-dimethyl-2-oxo-1,2-dihydropyridin-4-yl]oxy}methyl)benzyl]urea] | 13.7 nM
COc1ccc(Cn2c(C)cc(OCc3ccccc3CNC(=O)Nc3cc(C(C)(C)C)nn3-c3ccc(C)cc3)c(C)c2=O)c(OC)c1 [Example 245, 1-[3-tert-butyl-1-(4-methylphenyl)-1H-pyrazol-5-yl]-3-[2-({[1-(2,4-dimethoxybenzyl)-3,6-dimethyl-2-oxo-1,2-dihydropyridin-4-yl]oxy}methyl)benzyl]urea] | 13.4 nM
COc1ccccc1Cn1c(C)cc(OCc2ccccc2CNC(=O)Nc2cc(C(C)(C)C)nn2-c2ccc(O)cc2)c(Cl)c1=O [Example 246, 1-[3-tert-butyl-1-(4-hydroxyphenyl)-1H-pyrazol-5-yl]-3-[2-({[3-chloro-1-(2-methoxybenzyl)-6-methyl-2-oxo-1,2-dihydropyridin-4-yl]oxy}methyl)benzyl]urea] | 10 nM

Compounds with a lower IC50, results first:

IC50 | Structure (SMILES)
1.8 nM | Cc1ccc(C(=O)NCCN(C)C)cc1-n1c(C)cc(OCc2ccccc2CNC(=O)Nc2cc(C(C)(C)C)nn2-c2ccc(Cl)c(O)c2)c(Cl)c1=O [Example 231, 3-{4-[(2-{[({[3-tert-butyl-1-(4-chloro-3-hydroxyphenyl)-1H-pyrazol-5-yl]amino}carbonyl)amino]methyl}benzyl)oxy]-3-chloro-6-methyl-2-oxopyridin-1(2H)-yl}-N-[2-(dimethylamino)-ethyl]-4-methylbenzamide]
4.4 nM | COC(=O)c1ccc(C)c(-n2c(C)cc(OCc3ccc(F)cc3CNC(=O)Nc3cc(C(C)(C)C)nn3-c3ccc(O)cc3)c(Cl)c2=O)c1 [Example 232, methyl 3-{4-[(2-{[({[3-tert-butyl-1-(4-hydroxyphenyl)-1H-pyrazol-5-yl]amino}carbonyl)amino]methyl}-4-fluorobenzyl)-oxy]-3-chloro-6-methyl-2-oxopyridin-1(2H)-yl}-4-methylbenzoate]
1.5 nM | Cc1ccc(C(=O)NCC(N)=O)cc1-n1c(C)cc(OCc2ccccc2CNC(=O)Nc2cc(C(C)(C)C)nn2-c2ccc(O)c(Cl)c2)c(Cl)c1=O [Example 233, N-(2-amino-2-oxoethyl)-3-{4-[(2-{[({[3-tert-butyl-1-(3-chloro-4-hydroxyphenyl)-1H-pyrazol-5-yl]amino}carbonyl)amino]-methyl}benzyl)oxy]-3-chloro-6-methyl-2-oxopyridin-1(2H)-yl}-4-methylbenzamide]
1.3 nM | Cc1ccc(C(=O)NCC(O)CO)cc1-n1c(C)cc(OCc2ccccc2CNC(=O)Nc2cc(C(C)(C)C)nn2-c2ccc(Cl)c(O)c2)c(Cl)c1=O (stereo not shown) [Example 234, 3-{4-[(2-{[({[3-tert-butyl-1-(4-chloro-3-hydroxyphenyl)-1H-pyrazol-5-yl]amino}carbonyl)amino]methyl}benzyl)oxy]-3-chloro-6-methyl-2-oxopyridin-1(2H)-yl}-N-(2,3-dihydroxy-propyl)-4-methylbenzamide]
4.2 nM | COCCNC(=O)c1ccc(C)c(-n2c(C)cc(OCc3ccc(F)cc3CNC(=O)Nc3cc(C(C)(C)C)nn3-c3ccc(Cl)c(O)c3)c(Cl)c2=O)c1 [Example 235, 3-{4-[(2-{[({[3-tert-butyl-1-(4-chloro-3-hydroxyphenyl)-1H-pyrazol-5-yl]amino}carbonyl)amino]methyl}-4-fluorobenzyl)-oxy]-3-chloro-6-methyl-2-oxopyridin-1(2H)-yl}-N-(2-methoxy-ethyl)-4-methylbenzamide]
7.5 nM | CNC(=O)c1ccc(C)c(-n2c(C)cc(OCc3ccc(F)cc3CNC(=O)Nc3cc(C(C)(C)C)nn3-c3ccc(O)c(Cl)c3)c(Cl)c2=O)c1 [Example 236, 3-{4-[(2-{[({[3-tert-butyl-1-(3-chloro-4-hydroxyphenyl)-1H-pyrazol-5-yl]amino}carbonyl)amino]methyl}-4-fluorobenzyl)-oxy]-3-chloro-6-methyl-2-oxopyridin-1(2H)-yl}-N,4-dimethyl-benzamide]
2 nM | COCCNC(=O)c1ccc(C)c(-n2c(C)cc(OCc3ccccc3CNC(=O)Nc3cc(C(C)(C)C)nn3-c3cccc(OCCO)c3)c(Cl)c2=O)c1 [Example 238, 3-[4-{[2-({[({3-tert-butyl-1-[3-(2-hydroxyethoxy)phenyl]-1H-pyrazol-5-yl}amino)carbonyl]amino}methyl)benzyl]oxy}-3-chloro-6-methyl-2-oxopyridin-1(2H)-yl]-N-(2-methoxyethyl)-4-methylbenzamide]
2.9 nM | Cc1ccc(C(=O)NCCO)cc1-n1c(C)cc(OCc2ccc(F)cc2CNC(=O)Nc2cc(C(C)(C)C)nn2-c2cccc(OCCO)c2)c(Cl)c1=O [Example 239, 3-[4-{[2-({[({3-tert-butyl-1-[3-(2-hydroxyethoxy)phenyl]-1H-pyrazol-5-yl}amino)carbonyl]amino}methyl)-4-fluorobenzyl]-oxy}-3-chloro-6-methyl-2-oxopyridin-1(2H)-yl]-N-(2-hydroxy-ethyl)-4-methylbenzamide]
2.1 nM | Cc1ccc(C(=O)NCCN(C)C)cc1-n1c(C)cc(OCc2ccccc2CNC(=O)Nc2cc(C(C)(C)C)nn2-c2cccc(OCCO)c2)c(Cl)c1=O [Example 240, 3-[4-{[2-({[({3-tert-butyl-1-[3-(2-hydroxyethoxy)phenyl]-1H-pyrazol-5-yl}amino)carbonyl]amino}methyl)benzyl]oxy}-3-chloro-6-methyl-2-oxopyridin-1(2H)-yl]-N-[2-(dimethylamino)-ethyl]-4-methylbenzamide]
